Assay results reported in patent US20210330611A1, “THERAPY FOR NEUROLOGICAL DISEASES/DISORDERS” (priority 2020, published 2021).
Structures can show the parent of a compound that is named as a salt. Where two headings read alike, the source gives them in different places.

What was measured:
primary rat microglia [1] = assay: Cell toxicity (dead cells, size <150 μm2) in coated fibrin (cFib) assay; settings: primary microglia HTS, fibrin stimulation;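 also: share of dead cells sized under 150 µm2 at 10 µM in fibrin-stimulated microglia HTS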
[2] = test system: fibrin-induced microglia activation; assay: Image-based assay of fibrin-induced microglia activation (HTS and dose response); format: cell-based, rat; settings: primary microglia HTS, fibrin stimulation; for inhibition at 10 µM: Rattus norvegicus, Microglia, read-out: Fibrin % inhibition
[3] = test system: LPS-induced microglia activation; assay: Image-based assay of LPS-induced microglia activation (HTS and dose response); format: cell-based, rat; settings: primary microglia HTS, LPS stimulation; for inhibition at 10 µM: Rattus norvegicus, Microglia, 48 h, read-out: LPS % inhibition
[4] = test system: fibrin- and LPS-induced microglia activation; assay: cells; format: cell-based, rat; settings: quadrant by fibrin and LPS inhibition in HTS of 1907 compounds
primary rat microglia [5] = assay: Cell toxicity (dead cells, size <150 μm2) in LPS assay; settings: primary microglia HTS, LPS stimulation
[6] = activation = cell size >800 μm2
[7] = decreased size (<150 μm^2) as marker of toxicity
[8] = increased cell size (>800 μm^2) as marker of activation

Structure (SMILES)	Fibrin % cell toxicity (primary rat microglia [1]; toxicity = cell size <150 μm2)	inhibition at 10 µM [2, 6]	inhibition at 10 µM [3, 6]	Quadrant (FIG. 5b) [4]	LPS % cell toxicity (primary rat microglia [5]; toxicity = cell size <150 μm2)	Fibrin % inhibition [2, 6]	LPS % inhibition [3, 6]	Fibrin % cell toxicity (primary rat microglia [1]; [7])	inhibition at 10 µM [2, 8]	inhibition at 10 µM [3, 8]	LPS % cell toxicity (primary rat microglia [5]; [7])
CC[N+](CC)(CC)CCOc1cccc(OCC[N+](CC)(CC)CC)c1OCC[N+](CC)(CC)CC [Gallamine Triethiodide]	1%	-11%	24%	Q4	1%	–	–	–	–	–	–
O=C(O)c1cc(O)c(O)c(O)c1 [Gallic Acid]	0%	-32%	10%	Q4	0%	–	–	–	–	–	–
O=C(O)CCCc1ccccc1 [Gamma-Phenyl-Butyric Acid]	0%	-36%	9%	Q4	0%	–	–	–	–	–	–
CC(=O)[C@H]1CC[C@H]2[C@@H]3CC[C@H]4C[C@](C)(O)CC[C@]4(C)[C@H]3CC[C@]12C [Ganaxolone]	1%	-38%	12%	Q4	0%	–	–	–	–	–	–
Nc1nc(O)c2ncn(COC(CO)CO)c2n1 [Ganciclovir]	0%	-2%	13%	Q4	0%	–	–	–	–	–	–
COc1c(N2CCNC(C)C2)c(F)cc2c(=O)c(C(=O)O)cn(C3CC3)c12 (stereo not shown) [Gatifloxacin]	1%	-19%	19%	Q4	0%	–	–	–	–	–	–
Nc1ccn([C@@H]2O[C@H](CO)[C@@H](O)C2(F)F)c(=O)n1 [Gemcitabine]	1%	-31%	0%	Q4	0%	–	–	–	–	–	–
Cc1ccc(C)c(OCCCC(C)(C)C(=O)O)c1 [Gemfibrozil]	0%	-47%	10%	Q4	0%	–	–	–	–	–	–
CO/N=C1\CN(c2nc3c(cc2F)c(=O)c(C(=O)O)cn3C2CC2)CC1CN (stereo not shown) [Gemifloxacin]	0%	-34%	6%	Q4	0%	–	–	–	–	–	–
Cc1ccc(S(=O)(=O)NC(=O)NN2CC3CCCC3C2)cc1 (stereo not shown) [Gliclazide]	1%	1%	20%	Q4	0%	–	–	–	–	–	–
O=C1O[C@H](CO)[C@@H](O)[C@H](O)[C@H]1O [Gluconolactone]	0%	-1%	17%	Q4	0%	–	–	–	–	–	–
Cl.N[C@H]1C(O)O[C@H](CO)[C@@H](O)[C@@H]1O (stereo partly shown) [Glucosamine Hydrochloride]	1%	-2%	19%	Q4	0%	–	–	–	–	–	–
COc1ccccc1O [Guaiacol]	0%	-51%	11%	Q4	0%	–	–	–	–	–	–
COc1ccccc1OCC(O)CO (stereo not shown) [Guaifenesin]	0%	-15%	11%	Q4	0%	–	–	–	–	–	–
N=C(N)N/N=C/c1c(Cl)cccc1Cl [Guanabenz Acetate]	0%	–	–	Q4	0%	−46%	−2%	–	–	–	–
N=C(N)N/N=C/c1c(Cl)cccc1Cl [Guanabenz]	1%	-46%	–	Q4	0%	–	−18%	–	–	–	–
N=C(N)NCC1COC2(CCCCC2)O1 (stereo not shown) [Guanadrel]	1%	-1%	5%	Q4	0%	–	–	–	–	–	–
N=C(N)N [Guanidine]	0%	-32%	-1%	Q4	0%	–	–	–	–	–	–
O=C(O)c1ccc(S(=O)(=O)N(Cl)Cl)cc1 [Halazone]	0%	-13%	19%	Q4	0%	–	–	–	–	–	–
CC1(C)O[C@@H]2C[C@H]3[C@@H]4CCC5=CC(=O)CC[C@]5(C)[C@@]4(F)[C@@H](O)C[C@]3(C)[C@]2(C(=O)CCl)O1 [Halcinonide]	–	–	–	Q2	–	–	–	8%	103%	95%	2%
Clc1cc(Cl)c(OCC#CI)cc1Cl [Haloprogin]	–	–	–	Q2	–	–	–	42%	78%	106%	70%
CC(N)CCCC(C)(C)O (stereo not shown) [Heptaminol Hydrochloride]	1%	-19%	13%	Q4	0%	–	–	–	–	–	–
CC1(C)S[C@@H]2[C@H](N3C(=O)[C@@H](c4ccccc4)NC3(C)C)C(=O)N2[C@H]1C(=O)O [Hetacillin Potassium]	0%	-15%	15%	Q4	1%	–	–	–	–	–	–
